The results in this text go back to patent publication EP4810040A2, “INHIBITORS OF APOL1 AND METHODS OF USING SAME” (priority 2020, dated 2022).

Where two headings read alike, the source gives them in different places. Where only a bound is given, the exact number is not on record here.

The target in the assay is T1, APOL1 G1 (Homo sapiens, UniProt O14791, I384M/S342G).
T1 sequence (O14791 28-398 S342G/I384M): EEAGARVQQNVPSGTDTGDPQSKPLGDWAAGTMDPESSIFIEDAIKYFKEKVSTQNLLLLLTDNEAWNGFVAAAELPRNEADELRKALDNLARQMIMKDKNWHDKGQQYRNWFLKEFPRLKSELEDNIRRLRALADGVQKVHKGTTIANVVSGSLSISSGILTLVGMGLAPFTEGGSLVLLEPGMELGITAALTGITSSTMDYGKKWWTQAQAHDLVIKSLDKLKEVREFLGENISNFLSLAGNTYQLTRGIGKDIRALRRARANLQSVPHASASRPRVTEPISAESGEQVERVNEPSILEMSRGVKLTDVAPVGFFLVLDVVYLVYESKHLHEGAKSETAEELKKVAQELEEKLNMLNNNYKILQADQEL
As to the kind of experiment: MultiTox-Fluor Multiplex Cytotoxicity Assay, tet-inducible APOL1 G1 T-REx-HEK293 cells. Format: cell-based. Further details: expressed in transfected cells; host or cells: T-REx HEK293, clone G1 DC3.25 (pAAVS1-Puro-APOL1 G1). The conditions noted are these: for IC90: read-out: Multi-Tox Assay IC90; for Emax: read-out: Multi-Tox Assay Max Activity (%). The method, boiled down:
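Over 24 h at 37 °C, compounds (10-point 3-fold series from 10 µM, duplicate) were co-incubated with 50 ng/mL tetracycline inducing APOL1 G1 in T-REx-HEK293 cells. Viability/cytotoxicity measured by MultiTox-Fluor as dead-to-live fluorescence ratio, expressed as percent of control between uninduced and induced wells and fitted.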

Where [1] appears, read: Multi-Tox Assay, APOL1 variant (G0/G1/G2) not stated in Table 46.
Setting [2] is: Multi-Tox Assay, APOL1 variant not stated in Table 46.
The mark [3] stands for this setting: HEK293, Multi-Tox Assay, APOL1 variant (G0/G1/G2) of the HEK293 cells not given.
Setting [4] is: Multi-Tox Assay, APOL1 variant not given.

Consider `Cn1cc(C2CC3(CC(C(F)F)N2)OCCc2cc(Cl)sc23)nn1` (stereo not drawn) [Compound 388, 2-chloro-2'-(difluoromethyl)-6'-(1-methyltriazol-4-yl)spiro[4,5-dihydrothieno[2,3-c]pyran-7,4'-piperidine]], for which the IC90 – broadly, the concentration at which the effect reaches the 90% level – under setting [1] is over 500 nM. Also, under setting [2], the Emax stood at 90%.
On to `COc1cc(F)cc(Cn2cc([C@@H]3C[C@]4(C[C@H](C)N3)OCC(F)(F)c3cc(Cl)sc34)nn2)c1` [Compound 333], for which, under setting [3], the IC90 is 50 to 500 nM. Moreover, under setting [4], the “Multi-Tox Assay Max Activity (%)” value worked out at 97.0%.
In the case of `C[C@H]1C[C@@]2(C[C@@H](c3cn(Cc4ncc(F)cc4F)nn3)N1)OC[C@@H](O)c1cc(Cl)sc12` [Compound 298], the IC90 under setting [3] is over 500 nM. For the same molecule, the “Multi-Tox Assay Max Activity (%)” value under setting [4] is given as 95.0%.
In the same order, the values of `CC1COC2(C[C@@H](c3cn(C)nn3)N[C@@H](C)C2)c2cc(C(F)(F)F)sc21` (stereo partly drawn) [Compound 14] are 50 to 500 nM and 99.3%.
In the same order, the values of `CNC(=O)c1cccc(C2CC3(CC(C)N2)OCCc2cc(Cl)sc23)c1` (stereo not drawn) [Compound 27] are under 50 nM and 100.3%.
As for `C[C@H]1C[C@@]2(C[C@@H](c3cn(CCCO)nn3)N1)OCC(F)(F)c1cc(Cl)sc12` [Compound 359], under setting [3], the IC90 is under 50 nM. Further, the “Multi-Tox Assay Max Activity (%)” value under setting [4] worked out at 98.0%.
Take `C[C@H]1C[C@@]2(C[C@@H](c3cnn(CC(C)(CO)CO)c3)N1)OCCc1cc(Cl)sc12` (racemic) [Compound 103]: under setting [3], the IC90 was under 50 nM. Moreover, the “Multi-Tox Assay Max Activity (%)” value under setting [4] is 99.6%.
As for `Cc1ccc(Cn2cc([C@@H]3C[C@]4(C[C@H](C)N3)OC[C@@H](O)c3cc(Cl)sc34)nn2)nc1` [Compound 294], the IC90 under setting [3] lay within 50 to 500 nM. Moreover, the “Multi-Tox Assay Max Activity (%)” value under setting [4] amounted to 100.0%.
For `C[C@H]1C[C@@]2(C[C@@H](c3cnc4c(cnn4C)c3)N1)OCCc1cc(Cl)sc12` (racemic) [Compound 26], the IC90 under setting [3] was under 50 nM. In addition, the “Multi-Tox Assay Max Activity (%)” value under setting [4] is 100.0%.
The like results for `C[C@H]1C[C@@]2(C[C@@H](c3cn(CC4(CO)CC4)nn3)N1)OC[C@@H](O)c1cc(Cl)sc12` [Compound 242] were, in that order, 50 to 500 nM and 97.0%.
Regarding `Cc1ncoc1[C@@H]1C[C@]2(C[C@H](C)N1)OCCc1cc(Cl)sc12` (racemic) [Compound 157], the IC90 under setting [3] is over 500 nM. Further, the “Multi-Tox Assay Max Activity (%)” value under setting [4] is recorded as 96.3%.
In the same order, the values of `Cc1cc(O)ncc1[C@@H]1C[C@]2(C[C@H](C)N1)OCCc1cc(Cl)sc12` (racemic) [Compound 125] are 50 to 500 nM and 99.7%.
Consider `Cn1cc([C@@H]2C[C@]3(C[C@H](C4CC4)N2)OC[C@@H](O)c2cc(Cl)sc23)nn1` [Compound 382, (2'R,4S,6'S,7S)-2-chloro-2'-cyclopropyl-6'-(1-methyltriazol-4-yl)spiro[4,5-dihydrothieno[2,3-c]pyran-7,4'-piperidine]-4-ol], for which the IC90 under setting [1] is 50 to 500 nM. Moreover, under setting [2], the Emax came to 100%.
Take `CC1CC2(CC(CO)N1)OCCc1cc(Cl)sc12` (mixture of isomers) [Compound 210, (2-chloro-6'-methyl-spiro[4,5-dihydrothieno[2,3-c]pyran-7,4'-piperidine]-2'-yl)methanol]: under setting [3], the IC90 was over 500 nM. Moreover, the Emax under setting [4] turned out to be 92.2%.
For the molecule `C[C@H]1C[C@@]2(C[C@@H](c3cn(Cc4ccc(S(C)(=O)=O)cc4)nn3)N1)OC[C@@H](O)c1cc(Cl)sc12` [Compound 238], under setting [3], the IC90 lay in the range of 50 to 500 nM. For the same molecule, the “Multi-Tox Assay Max Activity (%)” value under setting [4] is reported as 100%.
The like results for `Cc1nnc(Cn2cc([C@@H]3C[C@]4(C[C@H](C)N3)OCC(F)(F)c3cc(Cl)sc34)nn2)[nH]1` [Compound 339] were, in that order, 50 to 500 nM and 97.0%.
In the same order, the values of `C[C@H]1C[C@@]2(C[C@@H](c3cn(CCC(C)(C)O)nn3)N1)OC[C@@H](O)c1cc(Cl)sc12` [Compound 252] are 50 to 500 nM and 100.0%.
For the molecule `COC(=O)[C@@H]1C[C@]2(C[C@@H](C)N1)OCCc1cc(Cl)sc12` (stereo in doubt) [Compound 209, methyl (2'S,6'R,7S)-2-chloro-6'-methyl-spiro[4,5-dihydrothieno[2,3-c]pyran-7,4'-piperidine]-2'-carboxylate], under setting [3], the concentration for an effect of 90% (IC90) was over 500 nM. Under setting [4], the Emax is 76.7%.
Take `C[C@H]1C[C@@]2(C[C@@H](c3cn(CC(C)(C)O)nn3)N1)OC[C@@H](O)c1cc(Cl)sc12` [Compound 247]: the IC90 under setting [3] was over 500 nM. The “Multi-Tox Assay Max Activity (%)” value under setting [4] was found to be 91.0%.
The like results for `C[C@H]1C[C@@]2(C[C@@H](c3cn(CCC#N)nn3)N1)OC[C@@H](O)c1cc(Cl)sc12` [Compound 286] were, in that order, 50 to 500 nM and 98.0%.
As to `Cc1ncc([C@@H]2C[C@]3(C[C@H](C)N2)OCCc2cc(Cl)sc23)o1` (racemic) [Compound 94], the IC90 under setting [3] was under 50 nM. In addition, the Emax under setting [4] came to 100%.
The like results for `C[C@@H]1CC2(C[C@H](C)N1)OCCc1cc(Cl)sc12` (single isomer, unassigned) [Compound 204] were, in that order, 50 to 500 nM and 99%.
Turning to `C[C@H]1C[C@@]2(C[C@@H](c3c[nH]c(C4CC4)n3)N1)OCCc1cc(Cl)sc12` (racemic) [Compound 130], the IC90 under setting [3] lay in the range of 50 to 500 nM.
The same measure, in the same setting: for `C[C@H]1C[C@@]2(C[C@@H](c3cn(CCOc4ccccc4F)nn3)N1)OC[C@@H](O)c1cc(Cl)sc12` [Compound 301] the value was under 50 nM.
As to `Cc1nc([C@@H]2C[C@]3(C[C@H](C)N2)OCCc2cc(Cl)sc23)co1` (racemic) [Compound 104], under setting [3], the IC90 is 50 to 500 nM. Besides, under setting [4], the “Multi-Tox Assay Max Activity (%)” value stood at 99.3%.
On to `C[C@H]1C[C@@]2(C[C@@H](c3n[nH]c4ccccc34)N1)OCCc1cc(Cl)sc12` (racemic) [Compound 169], for which the IC90 under setting [3] was over 500 nM. The “Multi-Tox Assay Max Activity (%)” value under setting [4] came out at 86.8%.
As to `C[C@H]1C[C@@]2(C[C@@H](c3ccc(C(N)=O)cc3)N1)OCCc1cc(Cl)sc12` (racemic) [Compound 47], the IC90 under setting [3] is under 50 nM. Also, the Emax under setting [4] turned out to be 99.3%.
For `C[C@H]1C[C@@]2(C[C@@H](c3ccnc(O)c3)N1)OCCc1cc(Cl)sc12` (racemic) [Compound 112], the IC90 under setting [3] is under 50 nM. Moreover, the “Multi-Tox Assay Max Activity (%)” value under setting [4] came to 100.0%.
Regarding `CCc1cc2c(s1)C1(CC(C)NC(c3cn(C)nn3)C1)OCC2` (single isomer, unassigned) [Compound 6], the IC90 under setting [3] was under 50 nM. For the same molecule, the Emax under setting [4] stood at 99.7%.
For the molecule `C[C@H]1C[C@@]2(C[C@@H](c3cn(CCc4ccncn4)nn3)N1)OCC(F)(F)c1cc(Cl)sc12` [Compound 305], the IC90 under setting [3] lay in the range of 50 to 500 nM. For the same molecule, the “Multi-Tox Assay Max Activity (%)” value under setting [4] is on record as 100.0%.
Consider `COCC1CC2(CC(c3cn(C)nn3)N1)OCCc1cc(C(F)(F)F)sc12` (stereo not drawn) [Compound 193], for which the IC90 under setting [3] lay within 50 to 500 nM. Under setting [4], the Emax came out at 99%.
The like results for `CC1CC2(CC(c3ccc4c(c3)OCC(=O)N4)N1)OCCc1cc(Cl)sc12` (stereo not drawn) [Compound 39] were, in that order, under 50 nM and 99.7%.
Consider `C[C@H]1C[C@@]2(C[C@@H](c3cn(Cc4ccc(OC5CCOCC5)cc4)nn3)N1)OCC(F)(F)c1cc(Cl)sc12` [Compound 308], for which the IC90 under setting [3] is over 500 nM. Also, the “Multi-Tox Assay Max Activity (%)” value under setting [4] is recorded as 95.0%.
For `C[C@H]1C[C@@]2(C[C@@H](c3cn(C)nn3)N1)OC[C@@H](O)c1sc(C(F)(F)F)cc12` [Compound 390, (2'S,4S,6'S,7R)-2'-methyl-6'-(1-methyltriazol-4-yl)-2-(trifluoromethyl)spiro[6,7-dihydrothieno[3,2-c]pyran-4,4'-piperidine]-7-ol], under setting [1], the IC90 is under 50 nM. Under setting [2], the Emax was 99%.
As to `COc1ccc2[nH]c([C@@H]3C[C@]4(C[C@H](C)N3)OCCc3cc(Cl)sc34)cc2n1` (racemic) [Compound 84], under setting [3], the IC90 is under 50 nM. The Emax under setting [4] is 99.8%.
Consider `COCC1CC2(CC(c3cn(C)nn3)N1)OCCc1cc(Cl)sc12` (stereo not drawn) [Compound 190], for which the IC90 under setting [3] lay in the range of 50 to 500 nM. Moreover, the Emax under setting [4] was determined as 99%.
Take `CC1CC2(CC(c3cncnc3)N1)OCCc1cc(Cl)sc12` (stereo not drawn) [Compound 45]: the IC90 under setting [3] is under 50 nM. In addition, under setting [4], the “Multi-Tox Assay Max Activity (%)” value came to 100.0%.
Take `CCC(O)Cn1cc([C@@H]2C[C@]3(C[C@H](C)N2)OC[C@@H](O)c2cc(Cl)sc23)nn1` (stereo partly drawn) [Compound 284]: the IC90 under setting [3] lay within 50 to 500 nM. For the same molecule, the “Multi-Tox Assay Max Activity (%)” value under setting [4] is reported as 101.0%.
For the molecule `C[C@H]1C[C@@]2(C[C@@H](c3cn(Cc4cncs4)nn3)N1)OC[C@@H](O)c1cc(Cl)sc12` [Compound 248], the IC90 under setting [3] lay within 50 to 500 nM. In addition, under setting [4], the “Multi-Tox Assay Max Activity (%)” value was found to be 101.0%.
For `C[C@H]1C[C@@]2(C[C@@H](c3cnc(N4CCN(C)CC4)nc3)N1)OCCc1cc(Cl)sc12` (racemic) [Compound 129], the IC90 under setting [3] is 50 to 500 nM. The “Multi-Tox Assay Max Activity (%)” value under setting [4] is 100.0%.
